Results from patent US10815247B2, “Functionalized NANOLUC inhibitors” (PROMEGA CORPORATION, priority 2016, dated 2020).

Biological target: NanoLuc (Oplophorus gracilirostris, UniProt Q9GV45, A31E/A60N/A81I/F95D/I117V/K70R/L54V/L99Q/M102K/N193R/P142E/Q151K/Q38R/Q45L/V71I/Y165I)
Assay: Inhibitor IC50 determination
Assay type: biochemical
Details: not given
Description: The following example provides the IC50 values for the compounds disclosed herein. NANOLUC® enzyme was diluted to 0.4 ng/ml in CO2 independent media+10% FBS to make the detection reagent. A 3× dilution series of each inhibitor was then made in the detection reagent. A “no inhibitor” control was also made for each sample. 50 ul of each inhibitor dilution was mixed with 50 ul of NanoGlo® buffer containing 20 μM furimazine (final furimazine concentration is 10 μM, which is at Km.), and luminescence was measured. Each sample was normalized to the “no inhibitor” control. The IC50 values were then determined using GraphPad Prism (log[inhibitor] vs. normalized response).

Sequence of NanoLuc (Q9GV45 28-196 with tags or gaps with the stated changes limits assumed): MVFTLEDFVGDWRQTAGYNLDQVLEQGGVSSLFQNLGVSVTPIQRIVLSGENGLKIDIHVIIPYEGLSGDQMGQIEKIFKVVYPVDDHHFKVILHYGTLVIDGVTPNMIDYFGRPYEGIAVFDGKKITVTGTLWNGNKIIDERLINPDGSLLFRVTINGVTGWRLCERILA

Question: With `CCN(C(=O)Cn1c(C(=O)N[C@H]2CC[C@H](C(=O)NCCCCCCNC(=O)c3ccc4c(c3)C(=O)OC43c4ccc(O)cc4Oc4cc(O)ccc43)CC2)cc2sccc21)c1cccc(C)c1` [JRW-0200, N-(trans-4-((6-(3′,6′-dihydroxy-3-oxo-3H-spiro[isobenzofuran-1,9′-xanthene]-5-carboxamido)hexyl)carbamoyl)cyclohexyl)-4-(2-(ethyl(m-tolyl)amino)-2-oxoethyl)-4H-thieno[3,2-b]pyrrole-5-carboxamide] as the compound, how does the IC50 read?
Answer: The IC50 was 49 nM.

Question: How did the IC50 turn out when `CCN(C(=O)Cn1c(C(=O)N[C@H]2CC[C@H](C(=O)OC)CC2)cc2sccc21)c1cccc(CBr)c1` [JRW-0466, methyl trans-4-(4-(2-((3-(bromomethyl)phenyl)(ethyl)amino)-2-oxoethyl)-4H-thieno[3,2-b]pyrrole-5-carboxamido)cyclohexane-1-carboxylate] was run?
Answer: Its IC50 is 2.1 nM.

Question: For `CCN(C(=O)Cn1c(C(=O)N[C@H]2CC[C@H](C(=O)NCCCCCC(=O)NCCOCCOCCC(=O)ON3C(=O)CCC3=O)CC2)cc2sccc21)c1cccc(C)c1` [JRW-0520, 2,5-dioxopyrrolidin-1-yl 1-(trans-4-(4-(2-(ethyl(m-tolyl)amino)-2-oxoethyl)-4H-thieno[3,2-b]pyrrole-5-carboxamido)cyclohexyl)-1,8-dioxo-12,15-dioxa-2,9-diazaoctadecan-18-oate], which IC50 is on record?
Answer: The IC50 was 94 nM.

Question: `CCN(C(=O)Cn1c(C(=O)N[C@H]2CC[C@H](C(=O)NCCCCCC(=O)NCCOCCOCCOCCC(=O)ON3C(=O)CCC3=O)CC2)cc2sccc21)c1cccc(C)c1` [JRW-0525] was tested. Which IC50 did it give?
Answer: Its IC50 is 84 nM.

Question: Which IC50 does the source give for `CCN(C(=O)Cn1c(C(=O)N[C@H]2CC[C@H](C(=O)NCCCCCC(=O)NCCOCCOCCOCCOCCC(=O)ON3C(=O)CCC3=O)CC2)cc2sccc21)c1cccc(C)c1` [JRW-0533] here?
Answer: The IC50 was 92 nM.

Question: With `CCN(C(=O)Cn1c(C(=O)N[C@H]2CC[C@H](C(=O)NCCCCCCNC(=O)CCOCCOCCNC(=O)CCN3C(=O)C=CC3=O)CC2)cc2sccc21)c1cccc(C)c1` [JRW-0559] as the compound, how does the IC50 read?
Answer: Its IC50 is 33 nM.

Question: How did the IC50 turn out when `CCc1cccc(N(CC)C(=O)Cn2c(C(=O)N[C@H]3CC[C@H](C(=O)NCCCCCCCC(=O)OC)CC3)cc3ccccc32)c1` [JRW-0597, methyl 8-(trans-4-(1-(2-(ethyl(3-ethylphenyl)amino)-2-oxoethyl)-1H-indole-2-carboxamido)cyclohexane-1-carboxamido)octanoate] was run?
Answer: The IC50 was 0.16 nM.

Question: For `CCc1cccc(N(CC)C(=O)Cn2c(C(=O)N[C@H]3CC[C@H](C(=O)NCCCCCCCC(=O)Oc4ccccc4)CC3)cc3ccccc32)c1` [JRW-0605, phenyl 8-(trans-4-(1-(2-(ethyl(3-ethylphenyl)amino)-2-oxoethyl)-1H-indole-2-carboxamido)cyclohexane-1-carboxamido)octanoate], which IC50 is on record?
Answer: The IC50 was 0.12 nM.

Question: How did the IC50 turn out when `CCc1cccc(N(CC)C(=O)Cn2c(C(=O)N[C@H]3CC[C@H](C(=O)NCCCCCCI)CC3)cc3ccccc32)c1` [JRW-0622, 1-(2-(ethyl(3-ethylphenyl)amino)-2-oxoethyl)-N-(trans-4-((6-iodohexyl)carbamoyl)cyclohexyl)-1H-indole-2-carboxamide] was run?
Answer: Its IC50 is 0.14 nM.

Question: For `CCc1cccc(N(CC)C(=O)Cn2c(C(=O)N[C@H]3CC[C@H](C(=O)NCCCCCCBr)CC3)cc3ccccc32)c1` [JRW-0626, N-(trans-4-((6-bromohexyl)carbamoyl)cyclohexyl)-1-(2-(ethyl(3-ethylphenyl)amino)-2-oxoethyl)-1H-indole-2-carboxamide], which IC50 is on record?
Answer: The IC50 was 0.2 nM.

Question: `CCc1cccc(N(CC)C(=O)Cn2c(C(=O)N[C@H]3CC[C@H](C(=O)NCCCCCCNC(=O)c4ccc5c(c4)C(=O)OC54c5ccc(O)cc5Oc5cc(O)ccc54)CC3)cc3ccccc32)c1` [JRW-0818, N-(trans-4-((6-(3′,6′-dihydroxy-3-oxo-3H-spiro[isobenzofuran-1,9′-xanthene]-5-carboxamido)hexyl)carbamoyl)cyclohexyl)-1-(2-(ethyl(3-ethylphenyl)amino)-2-oxoethyl)-1H-indole-2-carboxamide] was tested. Which IC50 did it give?
Answer: The IC50 was 1.2 nM.

Question: Which IC50 does the source give for `CCc1cccc(N(CC)C(=O)Cn2c(C(=O)N[C@H]3CC[C@H](C(=O)NCCCCCCNC(=O)c4ccc5c(c4)C4(OC5=O)c5ccc(N(C)C)cc5Oc5cc(N(C)C)ccc54)CC3)cc3ccccc32)c1` [JRW-822, N-(trans-4-((6-(3′,6′-bis(dimethylamino)-3-oxo-3H-spiro[isobenzofuran-1,9′-xanthene]-6-carboxamido)hexyl)carbamoyl)cyclohexyl)-1-(2-(ethyl(3-ethylphenyl)amino)-2-oxoethyl)-1H-indole-2-carboxamide] here?
Answer: The IC50 was 3.3 nM.

Question: How did the IC50 turn out when `CCN(C(=O)Cn1c(C(=O)N[C@H]2CC[C@H](C(=O)NCCCCCCNC(=O)c3ccc4c(c3)C3(OC4=O)c4ccc(N(C)C)cc4Oc4cc(N(C)C)ccc43)CC2)cc2sccc21)c1cccc(C)c1` [JRW-0824] was run?
Answer: Its IC50 is 180 nM.

Question: For `CCc1cccc(N(CC)C(=O)Cn2c(C(=O)N[C@H]3CC[C@H](C(=O)NCCCCCCNC(=O)CCc4ccc5n4[B-](F)(F)[N+]4=C(C)C=C(C)C4=C5)CC3)cc3ccccc32)c1` [JRW-0827, N-(trans-4-((6-(3-(5,5-difluoro-7,9-dimethyl-5H-514,614-dipyrrolo[1,2-c:2′,1′-f][1,3,2]diazaborinin-3-yl)propanamido)hexyl)carbamoyl)cyclohexyl)-1-(2-(ethyl(3-ethylphenyl)amino)-2-oxoethyl)-1H-indole-2-carboxamide], which IC50 is on record?
Answer: The IC50 was 2.7 nM.

Question: With `CCN(C(=O)Cn1c(C(=O)N[C@H]2CC[C@H](C(=O)NCCCCCCNC(=O)CCc3ccc4n3[B-](F)(F)[N+]3=C(C)C=C(C)C3=C4)CC2)cc2sccc21)c1cccc(C)c1` [JRW-0829, N-(trans-4-((6-(3-(5,5-difluoro-7,9-dimethyl-5H-514,614-dipyrrolo[1,2-c:2′,1′-f][1,3,2]diazaborinin-3-yl)propanamido)hexyl)carbamoyl)cyclohexyl)-4-(2-(ethyl(m-tolyl)amino)-2-oxoethyl)-4H-thieno[3,2-b]pyrrole-5-carboxamide] as the compound, how does the IC50 read?
Answer: The IC50 was 480 nM.

Question: Which IC50 does the source give for `CCN(C(=O)Cn1c(C(=O)N[C@H]2CC[C@H](C(=O)NCCCCCCCC(=O)ON3C(=O)CC(S(=O)(=O)O)C3=O)CC2)cc2sccc21)c1cccc(C)c1` (stereo partly drawn) [JRW-0830, sodium 1-((8-(trans-4-(4-(2-(ethyl(m-tolyl)amino)-2-oxoethyl)-4H-thieno[3,2-b]pyrrole-5-carboxamido)cyclohexane-1-carboxamido)octanoyl)oxy)-2,5-dioxopyrrolidine-3-sulfonate] here?
Answer: Its IC50 is 4.2 nM.

Question: `CCN(C(=O)Cn1c(C(=O)N[C@H]2CC[C@H](C(=O)NCCCCCCCC(=O)Oc3ccc(F)cc3)CC2)cc2sccc21)c1cccc(C)c1` [JRW-0831] was tested. Which IC50 did it give?
Answer: The IC50 was 320 nM.

Question: `CCN(C(=O)Cn1c(C(=O)N[C@H]2CC[C@H](C(=O)NCCCCCCCC(=O)Oc3cc(F)cc(F)c3)CC2)cc2sccc21)c1cccc(C)c1` [JRW-0833, 3,5-difluorophenyl 8-(trans-4-(4-(2-(ethyl(m-tolyl)amino)-2-oxoethyl)-4H-thieno[3,2-b]pyrrole-5-carboxamido)cyclohexane-1-carboxamido)octanoate] was tested. Which IC50 did it give?
Answer: The IC50 was 20 nM.

Question: With `CCN(C(=O)Cn1c(C(=O)N[C@H]2CC[C@H](C(=O)NCCCCCCCC(=O)Oc3ccc(C#N)cc3)CC2)cc2sccc21)c1cccc(C)c1` [JRW-0834, 4-cyanophenyl 8-(trans-4-(4-(2-(ethyl(m-tolyl)amino)-2-oxoethyl)-4H-thieno[3,2-b]pyrrole-5-carboxamido)cyclohexane-1-carboxamido)octanoate] as the compound, how does the IC50 read?
Answer: Its IC50 is 3.3 nM.

Question: For `CCN(C(=O)Cn1c(C(=O)N[C@H]2CC[C@H](C(=O)NCCCCCNC(=O)CCl)CC2)cc2sccc21)c1cccc(C)c1` [JRW-0844, N-(trans-4-((5-(2-chloroacetamido)pentyl)carbamoyl)cyclohexyl)-4-(2-(ethyl(m-tolyl)amino)-2-oxoethyl)-4H-thieno[3,2-b]pyrrole-5-carboxamide], which IC50 is on record?
Answer: Its IC50 is 41 nM.

Question: Which IC50 does the source give for `CCN(C(=O)Cn1c(C(=O)N[C@H]2CC[C@H](C(=O)NCCCCCCNC(=O)CCl)CC2)cc2sccc21)c1cccc(C)c1` [JRW-0846, N-(trans-4-((6-(2-chloroacetamido)hexyl)carbamoyl)cyclohexyl)-4-(2-(ethyl(m-tolyl)amino)-2-oxoethyl)-4H-thieno[3,2-b]pyrrole-5-carboxamide] here?
Answer: Its IC50 is 16 nM.

Question: `CCN(C(=O)Cn1c(C(=O)N[C@H]2CC[C@H](C(=O)NCCCCCCCC(=O)Oc3c(F)c(F)cc(F)c3F)CC2)cc2sccc21)c1cccc(C)c1` [JRW-0847] was tested. Which IC50 did it give?
Answer: The IC50 was 0.3 nM.

Question: How did the IC50 turn out when `CCN(C(=O)Cn1c(C(=O)N[C@H]2CC[C@H](C(=O)NCCCCCNC(=O)CBr)CC2)cc2sccc21)c1cccc(C)c1` [JRW-0870, N-(trans-4-((5-(2-bromoacetamido)pentyl)carbamoyl)cyclohexyl)-4-(2-(ethyl(m-tolyl)amino)-2-oxoethyl)-4H-thieno[3,2-b]pyrrole-5-carboxamide] was run?
Answer: The IC50 was 42 nM.

Question: How did the IC50 turn out when `CCc1cccc(N(CC)C(=O)Cn2c(C(=O)N[C@H]3CC[C@H](C(=O)NCCCCCCCCNC(=O)c4ccc5c(c4)C(=O)OC54c5ccc(O)cc5Oc5cc(O)ccc54)CC3)cc3ccccc32)c1` [JRW-0882, N-(trans-4-((8-(3′,6′-dihydroxy-3-oxo-3H-spiro[isobenzofuran-1,9′-xanthene]-5-carboxamido)octyl)carbamoyl)cyclohexyl)-1-(2-(ethyl(3-ethylphenyl)amino)-2-oxoethyl)-1H-indole-2-carboxamide] was run?
Answer: The IC50 was 1.1 nM.

Question: For `CCN(C(=O)Cn1c(C(=O)N[C@H]2CC[C@H](C(=O)NCCCCCCCCNC(=O)c3ccc4c(c3)C(=O)OC43c4ccc(O)cc4Oc4cc(O)ccc43)CC2)cc2sccc21)c1cccc(C)c1` [JRW-0883], which IC50 is on record?
Answer: Its IC50 is 5.4 nM.

Same assay, conditions: 0.4 ng/ml NANOLUC in CO2 independent media+10% FBS; final furimazine 10 μM; no pre-incubation noted; read-out: IC50

Question: With `CCN(C(=O)Cn1c(C(=O)N[C@H]2CC[C@H](C(=O)NCCCCCCNC(=O)c3ccc4c(c3)C3(OC4=O)c4ccc(N)cc4Oc4cc(N)ccc43)CC2)cc2sccc21)c1cccc(C)c1` [JRW-0863] as the compound, how does the IC50 read?
Answer: The IC50 was 36 nM.

Question: `CCN(C(=O)Cn1c(C(=O)N[C@H]2CC[C@H](C(=O)NCCCCCCCCNC(=O)c3ccc4c(c3)C(=O)OC43c4ccc(N)cc4Oc4cc(N)ccc43)CC2)cc2sccc21)c1cccc(C)c1` [JRW-0887] was tested. Which IC50 did it give?
Answer: Its IC50 is 6.3 nM.
